Values after ≈ are worked out from the molar mass of the structure shown.
Key:
Type in all cases: cell-based
[1] = test system: MYCOBACTERIUM SMEGMATIS ATCC 114; experiment: In vitro antibacterial activity, MIC, BHI agar dilution; conditions: M. smegmatis ATCC 114, unit assumed
[2] = test system: STAPHYLOCOCCUS AUREUS 1775; experiment: as above; conditions: S. aureus 1775, unit assumed
PSEUDOMONAS CEPACIA 296I = experiment: as above; conditions: P. cepacia 296I, unit assumed
M[…] ATCC 9341 = experiment: as above; conditions: M. luteus ATCC 9341, unit assumed
Summary of the method: (§1)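 Agar dilution in BHI: plates inoculated with 1:100 dilutions of organisms (1:10 for Micrococcus and Streptococcus), incubated 20-24 h at 35-37° C, then inspected for the lowest inhibitory concentration against a drug-free growth control.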

M[…] ATCC 4698 = experiment: as above; conditions: M. luteus ATCC 4698, unit assumed
Summary of the method: as §1

EN[…] ATCC 8043 = experiment: as above; conditions: E. faecium ATCC 8043, unit assumed
Summary of the method: as §1

STR[…] 508 = experiment: as above; conditions: S. agalactiae CMX 508, unit assumed
Summary of the method: as §1

[3] = test system: STAPHYLOCOCCUS AUREUS CMX 553; experiment: as above; conditions: S. aureus CMX 553, unit assumed
[4] = test system: STREPTOCOCCUS BOVIS A-5169; experiment: as above; conditions: S. bovis A-5169, unit assumed
[5] = test system: STAPHYLOCOCCUS AUREUS CMX 642A; experiment: as above; conditions: S. aureus CMX 642A, unit assumed
ESCHERICHIA COLI H560 = experiment: as above; conditions: E. coli H560, unit assumed
[6] = test system: ENTEROBACTER AEROGENES ATCC 13048; experiment: as above; conditions: E. aerogenes ATCC 13048, unit assumed
[7] = test system: PSEUDOMONAS AERUGINOSA DPHD-2862; experiment: as above; conditions: P. aeruginosa DPHD-2862, unit assumed
[8] = test system: PSEUDOMONAS AERUGINOSA 5007; experiment: as above; conditions: P. aeruginosa 5007, unit assumed
[9] = test system: STAPHYLOCOCCUS EPIDERMIDIS 3519; conditions: S. epidermidis 3519; BHI agar; unit assumed
[10] = test system: PROVIDENCIA STUARTII CMX 640; conditions: P. stuartii CMX 640; BHI agar; unit assumed
CANDIDA ALBICANS CCH 442 = experiment: In vitro antibacterial activity, MIC, BHI agar dilution; conditions: C. albicans CCH 442, unit assumed
ESCHERICHIA COLI DC-2 = experiment: as above; conditions: E. coli DC-2, unit assumed
ESCHERICHIA COLI KNK 437 = conditions: E. coli KNK 437; BHI agar; unit assumed
[11] = test system: PSEUDOMONAS AERUGINOSA BMH10; experiment: In vitro antibacterial activity, MIC, BHI agar dilution; conditions: P. aeruginosa BMH10, unit assumed
[12] = test system: STAPHYLOCOCCUS AUREUS ATCC 6538P; experiment: as above; conditions: S. aureus ATCC 6538P, 35-37° C., 20 to 24 hours, unit assumed
ESCHERICHIA COLI JUHL = conditions: E. coli JUHL; BHI agar; unit assumed
ESCHERICHIA COLI SS = experiment: In vitro antibacterial activity, MIC, BHI agar dilution; conditions: E. coli SS, unit assumed
[13] = test system: STAPHYLOCOCCUS AUREUS A5177; experiment: as above; conditions: S. aureus A5177, unit assumed
[14] = test system: STAPHYLOCOCCUS AUREUS A-5278; experiment: as above; conditions: S. aureus A-5278, unit assumed
[15] = test system: STREPTOCOCCUS PYOGENES 930; experiment: as above; conditions: S. pyogenes 930, unit assumed
[16] = test system: PSEUDOMONAS AERUGINOSA K799/WT; experiment: as above; conditions: P. aeruginosa K799/WT, unit assumed
[17] = test system: KLEBSIELLA PNEUMONIAE ATCC 8045; experiment: as above; conditions: K. pneumoniae ATCC 8045, unit assumed
[18] = test system: PSEUDOMONAS AERUGINOSA DPHD-5263; experiment: as above; conditions: P. aeruginosa DPHD-5263, unit assumed
[19] = test system: STREPTOCOCCUS PYOGENES PIU 2548; experiment: as above; conditions: S. pyogenes PIU 2548, unit assumed
[20] = test system: STAPHYLOCOCCUS AUREUS NCTC10649M; experiment: as above; conditions: S. aureus NCTC10649M, unit assumed
[21] = test system: STREPTOCOCCUS PYOGENES EES61; experiment: as above; conditions: S. pyogenes EES61, unit assumed
[22] = test system: PSEUDOMONAS AERUGINOSA K799/61; experiment: as above; conditions: P. aeruginosa K799/61, unit assumed

Row | SMILES | MIC [1] [µg/mL] | MIC [2] [µg/mL] | MIC (PSEUDOMONAS CEPACIA 296I) [µg/mL] | MIC (M[…] ATCC 9341) [µg/mL] | MIC (M[…] ATCC 4698) [µg/mL] | MIC (EN[…] ATCC 8043) [µg/mL] | MIC (STR[…] 508) [µg/mL] | MIC [3] [µg/mL] | MIC [4] [µg/mL] | MIC [5] [µg/mL] | MIC (ESCHERICHIA COLI H560) [µg/mL] | MIC [6] [µg/mL] | MIC [7] [µg/mL] | MIC [8] [µg/mL] | MIC [9] [µg/mL] | MIC [10] [µg/mL] | MIC (CANDIDA ALBICANS CCH 442) [µg/mL] | MIC (ESCHERICHIA COLI DC-2) [µg/mL] | MIC (ESCHERICHIA COLI KNK 437) [µg/mL] | MIC [11] [µg/mL] | other results
1 | CC[C@H]1OC(=O)[C@H](C)C(=O)[C@H](C)[C@@H](O[C@@H]2O[C@H](C)C[C@H](N(C)C)[C@H]2O)[C@](C)(OC)C[C@@H](C)C2=N[C@H](CN3CCOCC3)CN3C(=O)O[C@@]1(C)[C@H]3[C@H]2C [Example 95] | 3.1 (≈ 4.21 µM) | > 100 | > 100 | 0.1 (≈ 0.136 µM) | 0.39 (≈ 0.529 µM) | 0.2 (≈ 0.271 µM) | 0.1 (≈ 0.136 µM) | 0.39 (≈ 0.529 µM) | 0.02 (≈ 0.0271 µM) | 0.39 (≈ 0.529 µM) | 50 (≈ 67.8 µM) | > 100 | > 100 | > 100 | 0.39 (≈ 0.529 µM) | > 100 | > 100 | > 100 | > 100 | > 100 | MIC [12]: 0.39 µg/mL (≈ 0.529 µM); MIC (ESCHERICHIA COLI JUHL): 100 µg/mL (≈ 136 µM); MIC (ESCHERICHIA COLI SS): 0.39 µg/mL (≈ 0.529 µM); MIC [13]: 0.39 µg/mL (≈ 0.529 µM); MIC [14]: > 100 µg/mL; MIC [15]: > 100 µg/mL; MIC [16]: > 100 µg/mL; MIC [17]: > 100 µg/mL; MIC [18]: > 100 µg/mL; MIC [19]: 0.39 µg/mL (≈ 0.529 µM); MIC [20]: 0.39 µg/mL (≈ 0.529 µM); MIC [21]: 0.05 µg/mL (≈ 0.0678 µM); MIC [22]: 1.56 µg/mL (≈ 2.12 µM)
2 | CCC1OC(=O)C(C)C(=O)C(C)C(OC2OC(C)CC(N(C)C)C2O)C(C)(OC)CC(C)C2=NC(CN3CCCCC3)CN3C(=O)OC1(C)C3C2C (stereo not drawn) [Example 96] | 3.1 (≈ 4.22 µM) | > 100 | > 100 | 0.02 (≈ 0.0272 µM) | 0.39 (≈ 0.531 µM) | 0.1 (≈ 0.136 µM) | 0.05 (≈ 0.068 µM) | 0.39 (≈ 0.531 µM) | 0.01 (≈ 0.0136 µM) | 0.39 (≈ 0.531 µM) | 12.5 (≈ 17 µM) | 100 (≈ 136 µM) | > 100 | > 100 | 0.39 (≈ 0.531 µM) | > 100 | > 100 | 25 (≈ 34 µM) | 50 (≈ 68 µM) | 100 (≈ 136 µM) | MIC [12]: 0.2 µg/mL (≈ 0.272 µM); MIC (ESCHERICHIA COLI JUHL): 25 µg/mL (≈ 34 µM); MIC (ESCHERICHIA COLI SS): 0.39 µg/mL (≈ 0.531 µM); MIC [13]: 0.2 µg/mL (≈ 0.272 µM); MIC [14]: > 100 µg/mL; MIC [15]: > 100 µg/mL; MIC [16]: > 100 µg/mL; MIC [17]: 100 µg/mL (≈ 136 µM); MIC [18]: > 100 µg/mL; MIC [19]: 0.39 µg/mL (≈ 0.531 µM); MIC [20]: 0.39 µg/mL (≈ 0.531 µM); MIC [21]: 0.02 µg/mL (≈ 0.0272 µM); MIC [22]: 0.78 µg/mL (≈ 1.06 µM)
3 | CCC1OC(=O)C(C)C(=O)C(C)C(OC2OC(C)CC(N(C)C)C2O)C(C)(OC)CC(C)C2=NC(CN(C)C)CN3C(=O)OC1(C)C3C2C (stereo not drawn) [Example 97] | 12.5 (≈ 18 µM) | > 100 | > 100 | 0.05 (≈ 0.072 µM) | 0.78 (≈ 1.12 µM) | 0.1 (≈ 0.144 µM) | 0.02 (≈ 0.0288 µM) | 0.39 (≈ 0.561 µM) | 0.01 (≈ 0.0144 µM) | 0.2 (≈ 0.288 µM) | 25 (≈ 36 µM) | 100 (≈ 144 µM) | > 100 | > 100 | 0.39 (≈ 0.561 µM) | > 100 | > 100 | 50 (≈ 72 µM) | 50 (≈ 72 µM) | > 100 | MIC [12]: 0.2 µg/mL (≈ 0.288 µM); MIC (ESCHERICHIA COLI JUHL): 50 µg/mL (≈ 72 µM); MIC (ESCHERICHIA COLI SS): 0.39 µg/mL (≈ 0.561 µM); MIC [13]: 0.2 µg/mL (≈ 0.288 µM); MIC [14]: > 100 µg/mL; MIC [15]: > 100 µg/mL; MIC [16]: > 100 µg/mL; MIC [17]: 100 µg/mL (≈ 144 µM); MIC [18]: > 100 µg/mL; MIC [19]: 0.2 µg/mL (≈ 0.288 µM); MIC [20]: 0.78 µg/mL (≈ 1.12 µM); MIC [21]: 0.02 µg/mL (≈ 0.0288 µM); MIC [22]: 0.78 µg/mL (≈ 1.12 µM)
